Measured values published in patent US4014921A, “O-Acetoxy benzoate ester of 2(p-acetamido-phenyloxy)ethyl alcohol” (Alter, S.A., priority 1975, dated 1977).
Like-named read-outs stand apart in the source and are kept apart here.

Key:
[1] = Toxicity test by oral administration in a rat (LD50, LD10); conditions: rat, in vivo, po
stomach or intestine [2] = assay: Gastrointestinal toxicity: ulcers and hemorrhagic content after one dose of 500 mg/Kg in rats; conditions: one dose of 500 mg/Kg, 10-rat groups
rat [3] = conditions: in vivo, po
[4] = Antithermic (antipyretic) activity: yeast extract-induced temperature rise in rabbits; assay type: in vivo, rabbit
Experimental: Antithermic activity was determined in rabbits, adjusting an endovenous dose of yeast extract to achieve a + 1.7° C rise over the basal temperature of the animal. Three hours after injecting the pyrogenic agent, 200 mg/Kg of the product were administered interperitoneally.

rat [5] = assay: Toxicity test by oral administration in a rat (LD50, LD10)
[6] = Analgesic activity (test by Randall and Salitto); assay type: in vivo
Experimental: Int. Pharmacodyn 151, 409 (1957). Doses of 200, 300 and 500 mg/Kg. cause 1.43: 1.77 and 2.09 effects over controls.

[7] = Anti-inflammatory activity: edema inhibition (method of Winter, Risley and Nuss); assay type: in vivo; conditions: in vivo; LD50 / anti-inflammatory ED50; read-out: anti-inflammatory ED50 times lower than LD50
edema = assay: as above; assay type: in vivo
stomach or intestine [8] = conditions: rat, in vivo, 500 mg/kg
[9] = comparison with aspirin, in words

For `CC(=O)Oc1ccccc1C(=O)O` [aspirin], the LD50 [1] was 978 mg/kg, the “rats whose stomachs revealed hemorrhagic content” value (stomach or intestine [2]) was 60% and the “ulcers of the stomach or intestine” value (stomach or intestine [2]) was “no ulcers”.

With `CC(=O)Nc1ccc(OCCOC(=O)c2ccccc2OC(C)=O)cc1` [Compound (I), o-acetoxy benzoate ester of 2(p-acetamido-phenyloxy)-ethyl alcohol] the “LD10 (maximum dose possible to administer)” value (rat [3]) was 7,000 mg/Kg, the “animal's temperature after administration, for two consecutive hours” value ([4]; 200 mg/Kg interperitoneally, three hours after pyrogenic agent (+1.7° C rise)) was “decreased to its basal values” and the “duration of antipyretic effect relative to aspirin and N-acetyl-p-aminophenol” value ([4]; in words) was “longer lasting effects”. For the same molecule, the “toxicity factor relative to aspirin” value (rat [5]; factor in favor of product (I) over aspirin) was 7, the “toxicity relative to aspirin” value (rat [5]; oral, rat, in words) was “less toxic than aspirin” and the “analgesic activity relative to aspirin” value [6, 9] was “equipotential with respect to aspirin”. For the same molecule, the “analgesic effect over controls” value ([6]; dose 200 mg/Kg) was 1.43, the “analgesic effect over controls” value ([6]; dose 300 mg/Kg) was 1.77 and the “analgesic effect over controls” value ([6]; dose 500 mg/Kg) was 2.09. For the same molecule, the selectivity ratio [7] was 10, the “anti-inflammatory activity relative to aspirin” value (edema; [9]) was “as active as aspirin” and the “anti-inflammatory activity: times less active than indometacine” value (edema; comparison with indometacine) was 33 times. The inhibition at 200 mg/kg (edema; dose 200 mg/Kg) was 23%, the inhibition at 400 mg/kg (edema; dose 400 mg/Kg) was 31% and the “gastrointestinal disorders, comparison with aspirin” value (stomach or intestine [8]) was “clear differences appear in favor of compound (I) over aspirin”. The “ulcers of the stomach or intestine” value (stomach or intestine [8]) was “no ulcers”.

In the case of `COc1ccc2c(c1)c(CC(=O)O)c(C)n2C(=O)c1ccc(Cl)cc1` [indometacine, reference compound], the “anti-inflammatory ED50 relative to toxic range” value (edema; in words) is reported as “very close to the toxic range”.
